The results in this text go back to patent publication US9120861B2, “Functional enhancement of antimicrobials” (Mississippi State University, priority 2008, dated 2015).

In assay [1] the test system is M. luteus. The experiment in a line: bioassay plate overlaid with M. luteus (bacterial clearing). In kind it is cell-based. Conditions: 5 μL spotted onto a plate overlaid with M. luteus; FIG. 6. The method, then:
We performed a 2-mercaptoethanol addition to mutacin 1140 at pH 7.3 in Tris buffer at room temperature for 2 hours. FIG. 5 is a RP-HPLC chromatogram of the native mutacin 1140, designated by the black line with triangles, overlaid on the chromatogram of the 2-mercaptoethanol modified mutacin 1140 (B-Me mutacin), which is designated by the grey line with circles. The modification changes the retention time of the native molecule to the left, a slightly more hydrophilic solvent (more water relative to acetonitrile). The large peak in the flow through was determined, by smell, to be 2-mercaptoethanol. The two small sharp peaks following the flow peak, which both have an absorbance in the 280 nm range, appears to be contaminants in the 2-mercaptoethanol solution. They also appeared in Nisin A modified by the same 2-mercaptoethanol labeling procedure. Nisin has no aromatic residues to account for this absorbance. […] In the future, these 2-mercatoethanol peaks will be removed by washing the sample with ice cold ether, which will extract the thiol compound leaving our peptide in solution. We spotted 5 μL of the native mutacin and the B-Me mutacin onto a plate overlaid with M. luteus. […] We also performed the same reaction with ethanethiol following the same procedure outline above. […]

Assay [2] can be described thus: thin layer chromatography (TLC) lipid II binding assay. The settings on record: iodine stain; FIG. 8 and FIG. 9. From the text:
In FIG. 8 and FIG. 9, a thin layer chromatography (TLC) lipid II binding assay for native and modified nisin A and gallidermin is shown, respectively. The method of the present invention enables direct visualization for the loss of lipid II binding. […] Nisin is not as stable as gallidermin at higher temperatures.

Entries after “also recorded” stand apart in the source; their conditions may differ.

mutacin 1140: the “bactericidal activity (bacterial clearing, inhibition of bacterial growth)” value in assay [1] is “bacterial clearing”.
Regarding nisin A, the “lipid II binding (retention of lipid II at the origin of the TLC plate)” value in assay [2] is given as “retain lipid II at the origin”.
On the same count and under the same terms, with gallidermin the entry was “retain lipid II at the origin”; with “ethanethiol labeled nisin: nisin following addition of the organosulfur compound ethanethiol”, “maintains lipid II binding activity; also recorded: diminished capacity to retain lipid II at the origin”.
